Bounds are passed on as bounds.

The target in the experiment is T1, GR (Homo sapiens, UniProt P04150).
T1 construct: expressed in transfected cells; host or cells: CHO-K1
T1 sequence (P04150 1-777): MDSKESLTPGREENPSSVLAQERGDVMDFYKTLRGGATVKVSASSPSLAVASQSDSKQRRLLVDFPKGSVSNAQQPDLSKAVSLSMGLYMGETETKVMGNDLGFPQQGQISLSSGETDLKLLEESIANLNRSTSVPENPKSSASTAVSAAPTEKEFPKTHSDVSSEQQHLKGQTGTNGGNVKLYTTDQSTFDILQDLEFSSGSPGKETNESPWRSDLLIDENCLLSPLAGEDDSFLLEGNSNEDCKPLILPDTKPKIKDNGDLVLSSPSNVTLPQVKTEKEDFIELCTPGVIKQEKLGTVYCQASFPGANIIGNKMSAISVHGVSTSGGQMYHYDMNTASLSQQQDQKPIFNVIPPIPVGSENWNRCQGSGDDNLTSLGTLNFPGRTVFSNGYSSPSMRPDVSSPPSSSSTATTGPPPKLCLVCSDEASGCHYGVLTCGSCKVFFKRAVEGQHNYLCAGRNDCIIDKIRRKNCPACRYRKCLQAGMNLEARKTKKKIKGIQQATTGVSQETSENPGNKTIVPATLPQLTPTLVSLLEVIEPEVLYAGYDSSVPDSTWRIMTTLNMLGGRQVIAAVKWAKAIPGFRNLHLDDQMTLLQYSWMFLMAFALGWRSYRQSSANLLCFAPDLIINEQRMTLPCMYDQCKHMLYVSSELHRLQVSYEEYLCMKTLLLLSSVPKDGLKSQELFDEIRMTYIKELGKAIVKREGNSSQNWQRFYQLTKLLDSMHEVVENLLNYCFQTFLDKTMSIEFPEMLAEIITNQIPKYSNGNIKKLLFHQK
Put plainly: In Vitro GR Luciferase Reporter Assay (antagonist mode, CHO-K1-GR-MMTV-Luc reporter cells). Type of experiment: cell-based. The note with it: antagonist assay with 10 nM Dexamethasone, 18-24 hours. In outline:
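Antagonist mode: compounds (8 serial 1:5 dilutions) added to GR-MMTV-luciferase CHO-K1 reporter cells co-exposed to 10 nM dexamethasone final, in phenol red-free DMEM plus 10% CSS. After roughly 18-24 h at 37° C, OneGlo luminescence read and IC50 calculated.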
Background: Reporter assays use an easily measured gene product as a stand-in for the process of interest.

As for `O=C(c1ccc(C(F)(F)F)cn1)[C@]12Cc3cnn(-c4ccc(F)cc4)c3C=C1CC[C@H](S(=O)(=O)c1ccccn1)C2` [Example 58, ((4aS,6S)-1-(4-fluorophenyl)-6-(pyridin-2-ylsulfonyl)-1,4,5,6,7,8-hexahydro-4aH-benzo[f]indazol-4a-yl)(5-(trifluoromethyl)pyridin-2-yl)methanone], the half-maximal inhibitory concentration (IC50) (usually the point on the concentration scale where inhibition reaches its midpoint) was not above 100 nM. In the case of `O=C(c1cc(C(F)(F)F)ccn1)[C@]12Cc3cnn(-c4ccc(F)cc4)c3C=C1CC[C@H](S(=O)(=O)C1CCOCC1)C2` [Example 59, ((4aS,6S)-1-(4-fluorophenyl)-6-((tetrahydro-2H-pyran-4-yl)sulfonyl)-1,4,5,6,7,8-hexahydro-4aH-benzo[f]indazol-4a-yl)(4-(trifluoromethyl)pyridin-2-yl)methanone], the concentration for half-maximal inhibition (IC50) was not above 100 nM. Next, `CC1(O)CCC(S(=O)(=O)[C@H]2CCC3=Cc4c(cnn4-c4ccc(F)cc4)C[C@]3(C(=O)c3ccccn3)C2)CC1` (stereo partly drawn) [Example 60, ((4aS,6S)-1-(4-fluorophenyl)-6-((4-hydroxy-4-methylcyclohexyl)sulfonyl)-1,4,5,6,7,8-hexahydro-4aH-benzo[f]indazol-4a-yl)(pyridin-2-yl)methanone]: not above 100 nM. `COc1ccc(C(=O)[C@]23Cc4cnn(-c5ccc(F)cc5)c4C=C2CC[C@H](S(=O)(=O)c2ccccn2)C3)nc1` [Example 61, ((4aS,6S)-1-(4-fluorophenyl)-6-(pyridin-2-ylsulfonyl)-1,4,5,6,7,8-hexahydro-4aH-benzo[f]indazol-4a-yl)(5-methoxypyridin-2-yl)methanone] had an IC50 not above 100 nM. Next, `O=C(c1ccc(C2CC2)cn1)[C@]12Cc3cnn(-c4ccc(F)cc4)c3C=C1CC[C@H](S(=O)(=O)C1CCOCC1)C2` [Example 62, (5-cyclopropylpyridin-2-yl)((4aS,6S)-1-(4-fluorophenyl)-6-((tetrahydro-2H-pyran-4-yl)sulfonyl)-1,4,5,6,7,8-hexahydro-4aH-benzo[f]indazol-4a-yl)methanone]: not above 100 nM; `CC(C)S(=O)(=O)[C@H]1CCC2=Cc3c(cnn3-c3ccc(F)cc3)C[C@]2(C(=O)c2ccccn2)C1` [Example 63, ((4aS,6S)-1-(4-fluorophenyl)-6-(isopropylsulfonyl)-1,4,5,6,7,8-hexahydro-4aH-benzo[f]indazol-4a-yl)(pyridin-2-yl)methanone]: not above 100 nM; `O=C(c1cc(C(F)(F)F)ccn1)[C@]12Cc3cnn(-c4ccc(F)cc4)c3C=C1CC[C@H](S(=O)(=O)c1ccc(F)cc1)C2` [Example 64, ((4aS,6S)-1-(4-fluorophenyl)-6-((4-fluorophenyl)sulfonyl)-1,4,5,6,7,8-hexahydro-4aH-benzo[f]indazol-4a-yl)(4-(trifluoromethyl)pyridin-2-yl)methanone]: not above 100 nM.

Turning to `O=C(c1ccccn1)[C@]12Cc3cnn(-c4ccc(F)cc4)c3C=C1CC[C@H](S(=O)(=O)C1CCC(F)(F)CC1)C2` [Example 65, ((4aS,6S)-6-((4,4-difluorocyclohexyl)sulfonyl)-1-(4-fluorophenyl)-1,4,5,6,7,8-hexahydro-4aH-benzo[f]indazol-4a-yl)(pyridin-2-yl)methanone], the half-inhibitory concentration (IC50) is not above 100 nM.

Regarding `Cn1cc(S(=O)(=O)[C@H]2CCC3=Cc4c(cnn4-c4ccc(F)cc4)C[C@]3(C(=O)c3ccc(OC(F)(F)F)cn3)C2)cn1` [Example 66, ((4aS,6S)-1-(4-fluorophenyl)-6-((1-methyl-1H-pyrazol-4-yl)sulfonyl)-1,4,5,6,7,8-hexahydro-4aH-benzo[f]indazol-4a-yl)(5-(trifluoromethoxy)pyridin-2-yl)methanone], the IC50 was not above 100 nM. Compound `O=C(c1ccccn1)[C@]12Cc3cnn(-c4ccc(F)cc4)c3C=C1CC[C@H](S(=O)(=O)C1CCC1)C2` [Example 67, ((4aS,6S)-6-(cyclobutylsulfonyl)-1-(4-fluorophenyl)-1,4,5,6,7,8-hexahydro-4aH-benzo[f]indazol-4a-yl)(pyridin-2-yl)methanone] displayed an IC50 not above 100 nM.

The compound `O=C(c1ccc(F)cn1)[C@]12Cc3cnn(-c4ccc(F)cc4)c3C=C1CC[C@H](S(=O)(=O)c1ccccn1)C2` [Example 68, ((4aS,6S)-1-(4-fluorophenyl)-6-(pyridin-2-ylsulfonyl)-1,4,5,6,7,8-hexahydro-4aH-benzo[f]indazol-4a-yl)(5-fluoropyridin-2-yl)methanone] had an IC50 not above 100 nM. In the case of `O=C(c1ccc(C(F)(F)F)cn1)[C@]12Cc3cnn(-c4ccc(F)cc4)c3C=C1CC[C@H](S(=O)(=O)C1CCOCC1)C2` [Example 70, ((4aS,6S)-1-(4-fluorophenyl)-6-((tetrahydro-2H-pyran-4-yl)sulfonyl)-1,4,5,6,7,8-hexahydro-4aH-benzo[f]indazol-4a-yl)(5-(trifluoromethyl)pyridin-2-yl)methanone], the IC50 was not above 100 nM. For the compound `O=C(c1cc(C(F)(F)F)ccn1)[C@]12Cc3cnn(-c4ccc(F)cc4)c3C=C1CC[C@H](S(=O)(=O)c1cnn(C3CC3)c1)C2` [Example 71, ((4aS,6S)-6-((1-cyclopropyl-1H-pyrazol-4-yl)sulfonyl)-1-(4-fluorophenyl)-1,4,5,6,7,8-hexahydro-4aH-benzo[f]indazol-4a-yl)(4-(trifluoromethyl)pyridin-2-yl)methanone], the half-maximal inhibitory concentration (IC50) was not above 100 nM. Next, `Cn1cc(S(=O)(=O)[C@H]2CCC3=Cc4c(cnn4-c4ccc(F)cc4)C[C@]3(C(=O)c3ccc(C4CC4)cn3)C2)cn1` [Example 72, (5-cyclopropylpyridin-2-yl)((4aS,6S)-1-(4-fluorophenyl)-6-((1-methyl-1H-pyrazol-4-yl)sulfonyl)-1,4,5,6,7,8-hexahydro-4aH-benzo[f]indazol-4a-yl)methanone]: not above 100 nM; `O=C(c1cc(C(F)(F)F)ccn1)[C@]12Cc3cnn(-c4ccc(F)cc4)c3C=C1CC[C@H](S(=O)(=O)c1cnn(C3CC3)n1)C2` [Example 73, ((4aS,6S)-6-((2-cyclopropyl-2H-1,2,3-triazol-4-yl)sulfonyl)-1-(4-fluorophenyl)-1,4,5,6,7,8-hexahydro-4aH-benzo[f]indazol-4a-yl)(4-(trifluoromethyl)pyridin-2-yl)methanone]: not above 100 nM; `O=C(c1ccc(Cl)cn1)[C@]12Cc3cnn(-c4ccc(F)cc4)c3C=C1CC[C@H](S(=O)(=O)c1ccccn1)C2` [Example 74, (5-chloropyridin-2-yl)((4aS,6S)-1-(4-fluorophenyl)-6-(pyridin-2-ylsulfonyl)-1,4,5,6,7,8-hexahydro-4aH-benzo[f]indazol-4a-yl)methanone]: not above 100 nM. Next, `O=C(c1cc(C(F)(F)F)ccn1)[C@]12Cc3cnn(-c4ccc(F)cc4)c3C=C1CC[C@H](S(=O)(=O)c1cnn(CC(F)(F)F)c1)C2` [Example 75, ((4aS,6S)-1-(4-fluorophenyl)-6-((1-(2,2,2-trifluoroethyl)-1H-pyrazol-4-yl)sulfonyl)-1,4,5,6,7,8-hexahydro-4aH-benzo[f]indazol-4a-yl)(4-(trifluoromethyl)pyridin-2-yl)methanone]: not above 100 nM. To `CCn1cc(S(=O)(=O)[C@H]2CCC3=Cc4c(cnn4-c4ccc(F)cc4)C[C@]3(C(=O)c3cc(C(F)(F)F)ccn3)C2)cn1` [Example 76, ((4aS,6S)-6-((1-ethyl-1H-pyrazol-4-yl)sulfonyl)-1-(4-fluorophenyl)-1,4,5,6,7,8-hexahydro-4aH-benzo[f]indazol-4a-yl)(4-(trifluoromethyl)pyridin-2-yl)methanone] belongs not above 100 nM. `CCn1ncc(S(=O)(=O)[C@H]2CCC3=Cc4c(cnn4-c4ccc(F)cc4)C[C@]3(C(=O)c3ccc(C(F)(F)F)cn3)C2)n1` [Example 77, ((4aS,6S)-6-((2-ethyl-2H-1,2,3-triazol-4-yl)sulfonyl)-1-(4-fluorophenyl)-1,4,5,6,7,8-hexahydro-4aH-benzo[f]indazol-4a-yl)(5-(trifluoromethyl)pyridin-2-yl)methanone] displayed an IC50 not above 100 nM. Next, `CN([C@H]1CCC2=Cc3c(cnn3-c3ccc(F)cc3)C[C@]2(C(=O)c2ccc(C3CC3)cn2)C1)S(=O)(=O)c1cnn(C)n1` [Example 78, N-((4aS,6S)-4a-(5-cyclopropylpicolinoyl)-1-(4-fluorophenyl)-4,4a,5,6,7,8-hexahydro-1H-benzo[f]indazol-6-yl)-N,2-dimethyl-2H-1,2,3-triazole-4-sulfonamide]: not above 100 nM; `O=C(c1cc(C(F)(F)F)ccn1)[C@]12Cc3cnn(-c4ccc(F)cc4)c3C=C1CC[C@H](S(=O)(=O)c1cnn(CC3CC3)n1)C2` [Example 79, ((4aS,6S)-6-((2-(cyclopropylmethyl)-2H-1,2,3-triazol-4-yl)sulfonyl)-1-(4-fluorophenyl)-1,4,5,6,7,8-hexahydro-4aH-benzo[f]indazol-4a-yl)(4-(trifluoromethyl)pyridin-2-yl)methanone]: not above 100 nM.

These data come from US20210122730A1, “GLUCOCORTICOID RECEPTOR MODULATORS” (ORIC Pharmaceuticals, Inc., priority 2017, published 2021).
